In the supplement of paper PMC8671470:

Assays:
Conditions in all cases: 72 h
HL-60 [1] = tested on: HL-60
How it was run: (§1)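 Dose–response data were fitted with a four-parameter log-logistic model. They came from fifteen myeloid leukaemia lines treated in duplicate with five tenfold doses from 1 to 10,000 nM for 72 h at 37 °C with 5% CO2, with ATP viability normalised to vehicle and to a positive control at 10 µM. The IC50 was derived from these fits.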

BV-173 = tested on: BV-173
How it was run: as §1

ML-2 = tested on: ML-2
How it was run: as §1

MOLM-13 = tested on: MOLM-13
How it was run: as §1

KG-1 = tested on: KG-1
How it was run: as §1

LAMA-84 = tested on: LAMA-84
How it was run: as §1

KCL-22 = tested on: KCL-22
How it was run: as §1

THP-1 = tested on: THP-1
How it was run: as §1

SHI-1 = tested on: SHI-1
How it was run: as §1

HEL = tested on: HEL
How it was run: as §1

HL-60 [2] = assay: area under dose-response curve (viability, 1 nM-10 uM) (fraction (0-1)); higher = more sensitive
How it was run: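 HL-60 cells in RPMI 1640 with 10% FBS were rescreened against the full library on 384-well plates at five tenfold concentrations, 1–10,000 nM, in duplicate. Each screen was run with DMSO or 100 nM of one of three metabolic inhibitors, for 72 h at 37 °C, 5% CO2. Viability was read by CellTiter-Glo and normalised to DMSO and 10 μM proteasome-inhibitor wells. Where given, area under the curve came from four-parameter log-logistic fits (drc, PharmacoGx).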

[3] = co-treatment: GSK2194069 100 nM
[4] = co-treatment: pictilisib 100 nM

Structure (SMILES) | IC50 (cell viability) (HL-60 [1]) [µM] | IC50 (cell viability) (BV-173) [µM] | IC50 (cell viability) (ML-2) [µM] | IC50 (cell viability) (MOLM-13) [µM] | IC50 (cell viability) (KG-1) [µM] | IC50 (cell viability) (LAMA-84) [µM] | IC50 (cell viability) (KCL-22) [µM] | IC50 (cell viability) (THP-1) [µM] | IC50 (cell viability) (SHI-1) [µM] | IC50 (cell viability) (HEL) [µM] | area under dose-response curve (HL-60 [2]; co-treatment: AZD3965 100 nM) | area under dose-response curve (HL-60 [2]; co-treatment: DMSO vehicle) | area under dose-response curve (HL-60 [2]; [3]) | area under dose-response curve (HL-60 [2]; [4])
N#Cc1ccc(N(Cc2ccc(Br)cc2)n2cnnc2)cc1 [YM511] | > 10 | > 10 | > 10 | > 10 | > 10 | > 10 | > 10 | > 10 | > 10 | > 10 |  |  |  | 
CCOC(=O)c1sc(NC(=O)c2ccco2)c(SC#N)c1C [CBR-5884] | > 10 | > 10 | > 10 | > 10 | > 10 | > 10 | > 10 | > 10 | > 10 | > 10 | < 0.0301 | < 0.0301 | < 0.0301 | < 0.0301
Cc1nc(-c2ccccc2)sc1C(=O)Nc1ccc(S(N)(=O)=O)cc1 | > 10 | > 10 | > 10 | > 10 | > 10 | > 10 | > 10 | > 10 | > 10 | > 10 | < 0.0301 | < 0.0301 | < 0.0301 | < 0.0301
